Assay results from patent US20250171437A1 (Agios Pharmaceuticals,Inc., priority 2022, published 2025).

These compounds were tested against T1, human PAH with the R408W mutation (A375 R408W cells) (Homo sapiens, UniProt P00439, R408W) (assay: Cell Based Phenylalanine Flux Assay). Settings: A375 R408W cells; 24 hrs with compound, then 20 μM sepiapterin and 800 μM 13C9,15N-Phenylalanine for 4 hours; 13C-Tyrosine by LC-MS; average where tested multiple times.
T1 construct: expressed in transfected cells
T1 sequence (P00439 1-452 R408W): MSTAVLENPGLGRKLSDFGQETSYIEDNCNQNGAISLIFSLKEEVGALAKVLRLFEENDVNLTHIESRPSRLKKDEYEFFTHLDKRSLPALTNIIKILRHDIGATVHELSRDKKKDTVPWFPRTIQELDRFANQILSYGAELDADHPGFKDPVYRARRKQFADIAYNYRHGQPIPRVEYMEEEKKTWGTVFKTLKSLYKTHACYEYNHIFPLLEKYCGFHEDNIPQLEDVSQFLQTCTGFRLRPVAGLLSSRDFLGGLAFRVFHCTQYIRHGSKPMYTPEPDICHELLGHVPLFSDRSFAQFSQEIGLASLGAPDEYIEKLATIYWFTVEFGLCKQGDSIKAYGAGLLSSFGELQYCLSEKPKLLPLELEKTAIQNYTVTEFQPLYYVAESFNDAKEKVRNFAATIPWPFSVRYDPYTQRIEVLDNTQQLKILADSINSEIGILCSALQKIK
Outline: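 Puromycin-selected A375 line, lentiviral hPAH R408W; cmpd 24 h, 37 °C, 5% CO2, 0.5% DMSO; then 20 μM sepiapterin + 800 μM 13C9,15N-Phe, 4 h; media extracted in 80% MeCN; 13C-Tyr by LC-MS; AC50 from 10-pt curves.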

Row | AC50 [µM] | SMILES
1 | ≤ 0.5 | COc1ccc(-c2nc(C(F)F)c(C(=O)N3CCc4[nH]cnc4[C@H]3c3nc4cccc(F)c4o3)o2)nc1 [Example 616, (S)-(4-(difluoromethyl)-2-(5-methoxypyridin-2-yl)oxazol-5-yl)(4-(7-fluorobenzo[d]oxazol-2-yl)-6,7-dihydro-1H-imidazo[4,5-c]pyridin-5(4H)-yl)methanone]
2 | ≤ 0.5 | C[C@@H](O)c1nc(C(F)F)c(C(=O)N2CCc3[nH]cnc3[C@H]2c2nc3c(F)cccc3o2)o1 [Example 229, (4-(difluoromethyl)-2-((R)-1-hydroxyethyl)oxazol-5-yl)((S)-4-(4-fluorobenzo[d]oxazol-2-yl)-6,7-dihydro-1H-imidazo[4,5-c]pyridin-5(4H)-yl)methanone]
3 | 1 to 5 | Cc1ncoc1C(=O)N1CCc2[nH]cnc2[C@@H]1c1nc2c(F)cccc2o1 [Example 600, (R)-(4-(4-fluorobenzo[d]oxazol-2-yl)-6,7-dihydro-1H-imidazo[4,5-c]pyridin-5(4H)-yl)(4-methyloxazol-5-yl)methanone]
4 | ≤ 0.5 | CC(C)(O)c1nc(C(F)F)c(C(=O)N2CCc3[nH]cnc3[C@H]2c2nc3cc(F)cc(F)c3o2)o1 [Example 307, (S)-(4-(5,7-difluorobenzo[d]oxazol-2-yl)-6,7-dihydro-1H-imidazo[4,5-c]pyridin-5(4H)-yl)(4-(difluoromethyl)-2-(2-hydroxypropan-2-yl)oxazol-5-yl)methanone]
5 | ≥ 5 | CC(C)(O)c1nc(C(F)F)c(C(=O)N2Cc3[nH]cnc3[C@H]2c2nc3ccccc3o2)o1 [Example 947, (S)-(4-(benzo[d]oxazol-2-yl)-4,6-dihydropyrrolo[3,4-d]imidazol-5(1H)-yl)(4-(difluoromethyl)-2-(2-hydroxypropan-2-yl)oxazol-5-yl)methanone]
6 | 1 to 5 | O=C(c1oc(C2(O)CC2)nc1C(F)F)N1CCc2[nH]cnc2[C@H]1c1nc2ccc(F)cc2o1 [Example 237, (S)-(4-(difluoromethyl)-2-(1-hydroxycyclopropyl)oxazol-5-yl)(4-(6-fluorobenzo[d]oxazol-2-yl)-6,7-dihydro-1H-imidazo[4,5-c]pyridin-5(4H)-yl)methanone]
7 | 1 to 5 | Cn1nc(Br)nc1C(=O)N1CCc2[nH]cnc2[C@@H]1c1nc2cccc(F)c2o1 [Example 474, (R)-(3-bromo-1-methyl-1H-1,2,4-triazol-5-yl)(4-(7-fluorobenzo[d]oxazol-2-yl)-6,7-dihydro-1H-imidazo[4,5-c]pyridin-5(4H)-yl)methanone]
8 | 1 to 5 | Cc1ccc2oc([C@H]3c4nc[nH]c4CCN3C(=O)c3ncnn3C)nc2c1 [Example 746, (R)-(1-methyl-1H-1,2,4-triazol-5-yl)(4-(5-methylbenzo[d]oxazol-2-yl)-6,7-dihydro-1H-imidazo[4,5-c]pyridin-5(4H)-yl)methanone]
9 | 1 to 5 | Cc1nc([C@H](C)O)oc1C(=O)N1CCc2[nH]cnc2[C@@H]1c1nc2cccc(F)c2o1 [Example 248, ((R)-4-(7-fluorobenzo[d]oxazol-2-yl)-6,7-dihydro-1H-imidazo[4,5-c]pyridin-5(4H)-yl)(2-((S)-1-hydroxyethyl)-4-methyloxazol-5-yl)methanone]
10 | ≥ 5 | Cc1ccc2nc([C@H]3c4nc[nH]c4CCN3C(=O)c3nnc(-c4cnn(C(F)F)c4)o3)oc2c1 [Example 682, (R)-(5-(1-(difluoromethyl)-1H-pyrazol-4-yl)-1,3,4-oxadiazol-2-yl)(4-(6-methylbenzo[d]oxazol-2-yl)-6,7-dihydro-1H-imidazo[4,5-c]pyridin-5(4H)-yl)methanone]
11 | ≤ 0.5 | O=C(c1oc(-c2ccncc2)nc1C(F)F)N1CCc2[nH]cnc2[C@H]1c1nc2cc(F)ccc2o1 [Example 421, (S)-(4-(difluoromethyl)-2-(pyridin-4-yl)oxazol-5-yl)(4-(5-fluorobenzo[d]oxazol-2-yl)-6,7-dihydro-1H-imidazo[4,5-c]pyridin-5(4H)-yl)methanone]
12 | ≥ 5 | COc1cccc2oc([C@H]3c4nc[nH]c4CCN3C(=O)c3ncnn3C)nc12 [Example 904, (R)-(4-(4-methoxybenzo[d]oxazol-2-yl)-6,7-dihydro-1H-imidazo[4,5-c]pyridin-5(4H)-yl)(1-methyl-1H-1,2,4-triazol-5-yl)methanone]
13 | ≤ 0.5 | O=C(c1nnc(-c2ccc(F)cc2)o1)N1CCc2[nH]cnc2[C@H]1c1nc2cc(F)ccc2o1 [Example 27, (S)-(4-(5-fluorobenzo[d]oxazol-2-yl)-6,7-dihydro-1H-imidazo[4,5-c]pyridin-5(4H)-yl)(5-(4-fluorophenyl)-1,3,4-oxadiazol-2-yl)methanone]
14 | ≤ 0.5 | CC(O)c1nc(Br)c(C(=O)N2CCc3[nH]cnc3[C@H]2c2nc3cc(F)ccc3o2)o1 (single isomer, unassigned) [Example 226]
15 | ≤ 0.5 | O=C(c1nnc(-c2cnn(C(F)F)c2)o1)N1CCc2[nH]cnc2[C@H]1c1nc2ccccc2o1 [Example 841, (S)-(4-(benzo[d]oxazol-2-yl)-6,7-dihydro-1H-imidazo[4,5-c]pyridin-5(4H)-yl)(5-(1-(difluoromethyl)-1H-pyrazol-4-yl)-1,3,4-oxadiazol-2-yl)methanone]
16 | 1 to 5 | O=C(c1ccnn1C(F)F)N1CCc2[nH]cnc2[C@@H]1c1nc2ccccc2o1 [Example 564, (R)-(4-(benzo[d]oxazol-2-yl)-6,7-dihydro-1H-imidazo[4,5-c]pyridin-5(4H)-yl)(1-(difluoromethyl)-1H-pyrazol-5-yl)methanone]
17 | 0.5 to 1 | O=C(c1ccnn1C1CC1)N1CCc2[nH]cnc2[C@H]1c1nc2cccc(F)c2o1 [Example 727, (S)-(1-cyclopropyl-1H-pyrazol-5-yl)(4-(7-fluorobenzo[d]oxazol-2-yl)-6,7-dihydro-1H-imidazo[4,5-c]pyridin-5(4H)-yl)methanone]
18 | ≤ 0.5 | O=C(c1oc(-c2ncccn2)nc1C(F)F)N1CCc2[nH]cnc2[C@H]1c1nc2cccc(F)c2o1 [Example 667, (S)-(4-(difluoromethyl)-2-(pyrimidin-2-yl)oxazol-5-yl)(4-(7-fluorobenzo[d]oxazol-2-yl)-6,7-dihydro-1H-imidazo[4,5-c]pyridin-5(4H)-yl)methanone]
19 | 1 to 5 | O=C(c1nnc(-c2ccccn2)o1)N1CCc2[nH]cnc2[C@@H]1c1nc2c(F)c(F)ccc2o1 [Example 630, (R)-(4-(4,5-difluorobenzo[d]oxazol-2-yl)-6,7-dihydro-1H-imidazo[4,5-c]pyridin-5(4H)-yl)(5-(pyridin-2-yl)-1,3,4-oxadiazol-2-yl)methanone]
20 | ≥ 5 | Nc1cn2ncc(C(=O)N3CCc4[nH]cnc4[C@@H]3c3nc4cc(F)ccc4o3)c2cc1Cl [Example 178, (R)-(6-amino-5-chloropyrazolo[1,5-a]pyridin-3-yl)(4-(5-fluorobenzo[d]oxazol-2-yl)-6,7-dihydro-1H-imidazo[4,5-c]pyridin-5(4H)-yl)methanone]
21 | ≤ 0.5 | CC(F)(F)c1ncoc1C(=O)N1CCc2[nH]cnc2[C@H]1c1nc2ccc(F)cc2o1 [Example 649, (S)-(4-(1,1-difluoroethyl)oxazol-5-yl)(4-(6-fluorobenzo[d]oxazol-2-yl)-6,7-dihydro-1H-imidazo[4,5-c]pyridin-5(4H)-yl)methanone]
22 | 1 to 5 | O=C(c1nnc(-c2ccc(F)cc2)o1)N1CCc2[nH]cnc2[C@@H]1c1nc2cc(F)ccc2o1 [Example 28, (R)-(4-(5-fluorobenzo[d]oxazol-2-yl)-6,7-dihydro-1H-imidazo[4,5-c]pyridin-5(4H)-yl)(5-(4-fluorophenyl)-1,3,4-oxadiazol-2-yl)methanone]
23 | ≤ 0.5 | O=C(c1nnc(-c2cc(C(F)(F)F)ccn2)o1)N1CCc2[nH]cnc2[C@H]1c1nc2cc(F)ccc2o1 [Example 122, [(4S)-4-(5-fluoro-1,3-benzoxazol-2-yl)-1,4,6,7-tetrahydroimidazo[4,5-c]pyridin-5-yl]-[5-[4-(trifluoromethyl)-2-pyridyl]-1,3,4-oxadiazol-2-yl]methanone]
24 | 1 to 5 | O=C(c1nnc(-c2ccc(F)cc2F)o1)N1CCc2[nH]cnc2[C@@H]1c1nc2cc(F)ccc2o1 [Example 83, (R)-(5-(2,4-difluorophenyl)-1,3,4-oxadiazol-2-yl)(4-(5-fluorobenzo[d]oxazol-2-yl)-6,7-dihydro-1H-imidazo[4,5-c]pyridin-5(4H)-yl)methanone]

Same assay, conditions: A375 cells expressing R408W PAH; 24 hrs with compound, then 20 μM sepiapterin and 800 μM 13C9,15N-Phenylalanine for 4 hours; 13C-Tyrosine by LC-MS; average where tested multiple times

Row | AC50 [µM] | SMILES
25 | 1 to 5 | O=C(c1nnc(-c2ccncc2)o1)N1CCc2[nH]cnc2C1c1nc2cc(F)ccc2o1 (centres unmarked)
26 | ≥ 5 | Cc1ncoc1C(=O)N1CC2(CC2)c2[nH]cnc2C1c1nc2cc(F)ccc2o1 (centres unmarked)
27 | 1 to 5 | Cn1nc(Cl)nc1C(=O)N1CCc2[nH]cnc2C1c1nc2cc(F)ccc2o1 (centres unmarked)
28 | 1 to 5 | Cc1cccc2nc(C3c4nc[nH]c4CCN3C(=O)c3ccnn3C3CC3)oc12 (centres unmarked)
29 | 1 to 5 | Cn1cnc(-c2nnc(C(=O)N3CCc4[nH]cnc4C3c3nc4cccc(C(F)(F)F)c4o3)o2)c1 (centres unmarked)
30 | ≥ 5 | Cn1nc(-c2ccccn2)nc1C(=O)N1CCc2[nH]cnc2C1c1nc2cccc(F)c2o1 (centres unmarked)
31 | 1 to 5 | O=C(c1ccn(CC(F)F)n1)N1CCc2[nH]cnc2C1c1nc2ccccc2o1 (centres unmarked)
32 | 1 to 5 | COCc1nnc(C(=O)N2CCc3[nH]cnc3C2c2nc3cc(F)ccc3o2)o1 (centres unmarked)
